{
  "source": "paper PMC5228037",
  "about": "“Discovery and Mechanistic Characterization of Selective Inhibitors of H2S-producing Enzyme: 3-Mercaptopyruvate Sulfurtransferase (3MST) Targeting Active-site Cysteine Persulfide” (Scientific Reports, 2017)",
  "target": "T1, 3MST-overexpressing COS7 cells (Mus musculus, UniProt Q99J99)",
  "T1 construct": "expressed in transfected cells; host or cells: COS7 (transient)",
  "T1 sequence (Q99J99 1-297)": "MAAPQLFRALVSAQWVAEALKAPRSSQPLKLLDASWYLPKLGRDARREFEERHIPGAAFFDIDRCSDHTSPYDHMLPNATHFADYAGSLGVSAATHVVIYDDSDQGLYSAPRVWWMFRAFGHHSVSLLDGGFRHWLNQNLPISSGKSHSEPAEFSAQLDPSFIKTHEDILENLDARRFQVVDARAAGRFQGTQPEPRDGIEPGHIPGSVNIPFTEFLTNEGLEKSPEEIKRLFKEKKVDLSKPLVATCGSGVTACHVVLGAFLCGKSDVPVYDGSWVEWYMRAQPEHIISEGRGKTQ",
  "test": "Live-cell fluorescence imaging with SSP4 in 3MST-overexpressing COS7 cells",
  "assay_type": "cell-based",
  "protocol": "Figure 2 Selectivity assessment of hit compounds for 3MST over other H2S/polysulfides-producing enzymes and rhodanese. (a) 3MST-Inhibitory activity of hit compounds at 10 and 100 μM in cell lysate of 3MST-expressing HEK293 cells. 100 μM 3MP and 100 μM DTT were added to the solution containing 0.1% DMSO as a cosolvent, and the mixture was incubated at 37 °C for 15 min. H2S production was measured by gas chromatography. All data are presented as the mean ± S.D. (100 μM: n = 3 or 4; 10 μM: n = 3). (b) Selectivity assessment of hit compounds at 100 μM towards CBS and CSE. Only DMSO was added to the control sample instead of DMSO solution containing hit compounds. H2S production was monitored by gas chromatography. All data are presented as the mean (n = 3). (c) Detection method for rhodanese activity (Sörbo method). (d) Selectivity assessment of hit compounds towards rhodanese. The results are mean ± S.D. (n = 4, three times). These values were determined based upon the absorbance of [Fe(SCN)3] at 460 nm (Sӧrbo method). […] (e) Fluorescence confocal microscopic images of live COS7 cells transfected with 3MST or an empty vector[9] as a control. […] F/F0 was calculated by dividing the fluorescence intensity of cells after addition of 500 μM 3MP (10 min) by that of cells before addition of 500 μM 3MP (Pre), then the mean F/F0 was determined from 5 cells. […]",
  "data": [
    {"compound": "Cc1cc(=O)[nH]c(SCC(=O)c2cccc3ccccc23)n1", "note": "[compound 3]", "values": [
      {"measurement": "3MST activity in living cells (SSP4 sulfane sulfur fluorescence after 500 μM 3MP)", "setting": "1 μM compound, 3MST-overexpressing COS7 cells", "result": "almost completely suppressed"},
      {"measurement": "Cell-membrane permeability", "setting": "concluded from suppression of 3MST activity in live COS7 cells", "result": "cell-membrane permeable"}
    ]}
  ]
}
